The values that follow come from article PMC6540907, “The nuclear export inhibitor aminoratjadone is a potent effector in extracellular-targeted drug conjugates” (Chemical Science, 2019).

In data set [1] the test system is KB-3.1 cells. Briefly: Flow cytometry, fluorescence intensity per cell. It is filed as cell-based, human. Conditions: KB-3.1, 1 µM, 30 min, 37 °C.
Data set [2] addresses T1, CRM1 (Homo sapiens, UniProt O14980). The data set is described as follows: Nuclear export inhibition, fluorescent translocation biosensor in recombinant HeLa cells. The format is cell-based. Details: This cellular assay uses HeLa cells that express a recombinant fusion protein; endogenous in cells; host or cells: HeLa cells stably expressing the NLS-GST-GFP-RevNES translocation biosensor (HeLaRevBio). Conditions: nuclear export inhibition IC50, HeLa cells expressing translocation biosensor, 1 h incubation.

The target in data set [3] is T1, CRM1. Briefly: Streptavidin pull-down from HeLa cell lysate with LC-MS/MS identification. It is filed as binding. Further details: endogenous in cells; host or cells: HeLa cells (treated live with biotin conjugate 36, then lysed). Conditions: HeLa cells, 100 ng mL–1, 5 h; control additionally incubated with an excess of 1. Here is the method: To verify that this activity was indeed CRM1-mediated, HeLa cells were incubated with 36 at a concentration of 100 ng mL^–1 for 5 h and lysed.
The cell lysate was incubated with streptavidin-coupled sepharose beads, and bound proteins were eluted, digested and identified by LC-MS/MS.
Streptavidin-Pull-down with Ratjadone-biotin and identification of exportin by LC-MSMS A chemical pull down was performed to verify binding of ratjadone to Crm1. HeLa cells were treated with ratjadone-biotin, ratjadone or both at 0.1μg/ml final concentration for 5h. Cells were detached by scraping, washed twice in PBS and lysed in MPER-buffer (Thermo Fisher, Waltham, USA) supplemented with complete protease inhibitor (Roche, Mannheim, Germany). After 5min incubation on ice the lysate was centrifuged (20min, 13000rpm, 4°C) and the supernatant was incubated with streptavidin sepharose high performance (GE healthcare, Freiburg, Germany) overnight at 4°C. The next day beads were washed twice with PBS and resuspended in elution buffer (Roth) and heated to 95°C for 10min. 5% were tested on WesternBlot with a biotin-specific antibody.
Figure S12: Gel of α-Streptavidin pulldown experiment: Identification of protein band in the eluat of Biotin-PEG3-16S- […]

Details of data set [4]: method as in PMID 8761384. Particulars: standalone drug; cited from earlier work.
Data set [5] relates to nuclear export. Further details: method as in PMID 20055390, PMID 26833854. Particulars: cited from earlier work.
Details of data set [6]: method as in ref 86 = [86]; Hartmann D. A. Curr. Protoc. Pharmacol. 2002 19 7.6.1 7.6.8. Conditions: cited from earlier work.
Data set [7] is described as follows: Plasma stability assay (HPLC-MS/MS). Conditions: 37 °C, pH 7.4, two hours, 250 µM. The format is in vitro ADME. Here is the method: We exposed three selected conjugates, FA-7-Val-Cit-PABA-16R-aminoratjadone, FA-SS-16R-aminoratjadone and FA-3b-16R-aminoratjadone, to human plasma and quantified their relative amount at different time points by HPLC-MS/MS analysis (Fig. 9).
FA-7-Val-Cit-pABA-16R-Aminoratjadone (PK008a), FA-SS-16R-Aminoratjadone (PK026a) and FA-3b-L-Aminoratjadone (PK058a) were dissolved in DMSO were added to human plasma (pH 7.4, 37°C) to yield a final concentration of 10 µg/ml. In addition, procaine, propoxycaine and procainamide (dissolved in DMSO) were added to human plasma (pH 7.4, 37°C) to yield a final concentration of 250 µM. Procaine and propoxycaine served as positive controls as they are known to be unstable in mouse plasma. Procainamide served as negative control as it is known to be stable in mouse plasma. The samples were incubated for 0 min, 30 min, 60 min, 90 min and 120 min at 37°C. At each time point 10 µl of the respective sample was extracted with 50 µl acetonitrile containing an internal standard for 15 min on ice. […] All samples were analyzed via HPLC-MS using an Agilent 1290 Inifinity II HPLC system coupled to an AB Sciex QTrap 6500plus mass spectrometer. […]
MRM. All compo unds were detected in positive scan mode. Peak areas of each compound and of the internal standard were analyzed using MultiQuant 3.0 software (AB Sciex). Peaks were quantified using […]

The target in data set [8] is folate receptor-α, FRα. Further details: method as in ref 31 = [31]; Lu Y. Low P. S. Adv. Drug Delivery Rev. 2012 64 342 352. Conditions: read-out: folate affinity of the receptors; cited from earlier work.

T1 sequence (O14980 whole entry, the tested form may be a part): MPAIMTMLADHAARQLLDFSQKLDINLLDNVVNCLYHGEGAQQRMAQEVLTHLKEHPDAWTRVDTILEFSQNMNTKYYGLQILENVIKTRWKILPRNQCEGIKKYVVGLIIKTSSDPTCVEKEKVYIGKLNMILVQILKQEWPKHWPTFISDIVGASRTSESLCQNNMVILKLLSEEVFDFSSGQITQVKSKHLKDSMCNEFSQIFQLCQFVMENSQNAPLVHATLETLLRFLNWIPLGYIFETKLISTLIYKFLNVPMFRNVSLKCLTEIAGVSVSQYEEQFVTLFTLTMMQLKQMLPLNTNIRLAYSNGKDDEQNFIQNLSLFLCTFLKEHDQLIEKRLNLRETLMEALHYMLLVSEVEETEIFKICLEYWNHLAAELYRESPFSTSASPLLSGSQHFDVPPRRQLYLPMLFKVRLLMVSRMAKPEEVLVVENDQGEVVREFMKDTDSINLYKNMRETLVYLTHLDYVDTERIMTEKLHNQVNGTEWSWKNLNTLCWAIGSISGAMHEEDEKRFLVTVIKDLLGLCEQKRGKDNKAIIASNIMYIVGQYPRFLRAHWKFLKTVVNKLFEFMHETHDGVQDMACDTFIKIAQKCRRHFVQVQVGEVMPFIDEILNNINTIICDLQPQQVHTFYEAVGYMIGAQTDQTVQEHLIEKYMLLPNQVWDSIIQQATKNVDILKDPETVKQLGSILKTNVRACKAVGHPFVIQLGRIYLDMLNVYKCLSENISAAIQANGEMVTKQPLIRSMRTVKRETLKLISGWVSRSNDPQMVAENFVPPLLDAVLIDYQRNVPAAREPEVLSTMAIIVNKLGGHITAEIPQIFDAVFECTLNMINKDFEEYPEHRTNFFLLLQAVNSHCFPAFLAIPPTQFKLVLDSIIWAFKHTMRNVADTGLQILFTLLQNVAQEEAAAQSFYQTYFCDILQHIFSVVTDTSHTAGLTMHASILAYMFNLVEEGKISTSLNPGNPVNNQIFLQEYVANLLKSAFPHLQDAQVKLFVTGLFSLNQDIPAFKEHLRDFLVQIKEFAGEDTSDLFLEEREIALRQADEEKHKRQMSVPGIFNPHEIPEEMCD

`O=C1OC2(c3ccc(O)cc3Oc3cc(O)ccc32)c2ccccc21` [fluorescein]: the “fluorescence intensity per cell” value in data set [1] is reported as “did not label the cells”.

As for `CC=CC1OC(C(C=CC=C(C)CC(C)C=C(C)C=CC2CC=CC(=O)O2)NC(=O)OCCc2cn(CCOCCOCCOCCNC(=O)CCCCC3SCC4NC(=O)NC43)nn2)CC(O)C1C` (stereo not drawn) [Compound 36, biotin-PEG3-16S-aminoratjadone], the IC50 in data set [2] is 0.152 µM. Also, the “CRM1 identified in streptavidin pull-down” value in data set [3] was “clearly identified in this manner and strongly enriched”. On to `CCC(=C/[C@H](C)C/C=C/C(C)=C/[C@@H](C)C(=O)[C@@H](C)[C@H](O)[C@@H](C)C/C(C)=C/C(=O)O)/C=C/[C@@H]1OC(=O)C=C[C@@H]1C` [Compound 5, leptomycin B], for which the “outcome of early clinical trials” value in data set [4] is on record as “failed due to its high systemic toxicity”. Regarding `CCC(=C/C(C)C)/C=C/[C@H]1CC=CC(=O)O1` [Compound 8], the “concentration at which nuclear export is inhibited” value in data set [5] is 25 nM. With `CCCOc1cc(N)ccc1C(=O)OCCN(CC)CC` [propoxycain], the “stability in plasma (known)” value in data set [6] is recorded as “degrade rapidly in plasma”. The “degraded in human plasma” value in data set [7] is on record as “more than 90%”.

Turning to `CCN(CC)CCOC(=O)c1ccc(N)cc1` [procain], the “stability in plasma (known)” value in data set [6] is “degrade rapidly in plasma”. In addition, the “degraded in human plasma” value in data set [7] is recorded as “more than 90%”. `Nc1nc(=O)c2nc(CNc3ccc(C(=O)N[C@@H](CCC(=O)O)C(=O)O)cc3)cnc2[nH]1` [folate, Folic acid]: the Kd in data set [8] is […].
